What was measured:
[1] = rats, i.v.; cited from earlier work
VIM-2 [2] = target: T1, VIM-2 (Escherichia coli, UniProt Q5U7L7); assay: Incubation of AM-A with metalloenzymes in Zn2+-depleted buffer; format: biochemical; conditions: extended incubation, AM-A 0.5 mM
T1 construct: All β-lactamase overexpression constructs were generated without the leader peptide in a pET-28b plasmid containing a N-terminal His Tag; His tag (N); made in house; host or cells: E. coli BL21(DE3)
Procedure: Enzyme (500 nM) was incubated with AM-A (500 μM) for 10 minutes. 20 μL of the above was diluted with 180 μL nitrocefin or FAPGG substrate for the following final concentrations: Enzyme (50 nM), FAPGG (50 μM)/nitrocefin (20 μM), AM-A (50 μM). Buffer (50 mM HEPES pH 7.5, 300 mM NaCl) was stirred overnight with 2 g/100 mL Chelex-100 (Biorad; Richmond, Calif.). Assays were read in 96-well microplate format at 490 nm using a Spectramax reader (Molecular Devices) at 37° C.

VIM-2 [3] = target: T1, VIM-2; assay: Inactivation kinetics; format: biochemical
Procedure: NDM-1 (50 nM) was added to 20 μM nitrocefin containing AM-A in serial ½ dilutions from 8 μM. The assay was performed in 50 mM HEPES pH 7.5, 200 μL final volume. The assay was read in 96-well microplate format at 490 nm using a Spectramax reader (Molecular Devices) for 10 minutes at 37° C. VIM-2 (10 nM) was added to 20 μM nitrocefin containing AM-A in serial ½ dilutions from 16 μM. The assay was performed in 50 mM HEPES pH 7.5, 200 μL final volume. The assay was read in 96-well microplate format at 490 nm using a Spectramax reader (Molecular Devices) for 10 minutes at 37° C. as reported previously. For all assays experiments the offset between reaction initiation and the first read was ˜6s.
Rate constants characterizing the inactivation of enzyme were calculated based on the dependence of the pseudo-first order rate constant, ki, upon AM-A concentration according to the following model:
[formula] where E•Zn, A, E•Zn•A, and Zn•A are the active metalloenzyme, AM-A, the ternary metalloenzyme-AM-A complex, and AM-A-metal complex, respectively. Ki represents the dissociation constant of the ternary complex and k+2 is the rate constant for dissociation of ternary complex into inactivated enzyme (Einact) and AM-A-Zn complex. […]
[formula] […] The individual values of Ki and k+2 were determined by fitting the value of ki to equation 2 as described previously^25: […]

NDM-1 = NDM-1 (Klebsiella pneumoniae, UniProt C7C422); assay: ICP mass spectrometry of Zn in enzyme; conditions: NDM-1 inactivated by AM-A, ICP-MS
Procedure: Inductively coupled mass spectrometry (ICP-MS) was used to analyze the ability of AM-A to chelate Zn^66 from purified NDM-1 (27-270). The NDM-1 protein was purified as previously described^26 and freshly exchanged using a 15 kDa cutoff dialysis tubing into ICP-MS buffer (20 mM HEPES, 100 mM NaCl, pH 7.5) overnight at 4° C. in order to remove any contaminating metals. The protein was concentrated to ˜5 mg/mL and varying concentrations of AM-A were incubated with the protein samples in triplicate for 3 hours at room temperature with gentle shaking. The protein-AM-A samples were again dialyzed overnight at 4° C. into ICP-MS buffer using 12-14 kDa cutoff D-tube dialyzer mini (EMD biosciences) microdialysis cassettes. The final protein was diluted to 1 mg/mL in ICP-MS buffer, followed by a 1/40 dilution in an internal standard (10 ug/L Sc45, 1% nitric acid, Inorganic Ventures). Prior to sample analysis, the ICP MS was calibrated using a standard solution containing the metal isotopes of interest (Inorganic Ventures). […] Quantitative analysis was performed in triplicate for each sample with 60 sweeps per reading using the peak-hopping mode with a 50 ms/AMU dwell time for each element. […] Isotope abundance was determined by integrating peak areas using the NexION software program, and the data was represented graphically using Microsoft Excel.

ACE from rabbit lung = target: T2, ACE from rabbit lung (Oryctolagus cuniculus, UniProt P12822); assay: IC50 enzyme inhibition assay, FAPGG reporter substrate; format: biochemical; conditions: concentration-response assays
T2 construct: as well as ACE from rabbit lung; from tissue; host or cells: rabbit lung
Procedure: Enzyme (NDM-1, 5 nM; VIM-2, 500 pM; CTX-M-15, 500 pM; KPC-2, 5 nM; OXA-48, 1 nM; TEM-1, 100 pM; ACE, 50 nM) was mixed with 30 μM nitrocefin (100 μM nitrocefin for TEM-1; 250 µM furanacryloyl-L-phenylalanylglycylglycine [FAPGG] for ACE^24) after a 5-10 minute preincubation with AM-A. Metallo-enzymes were supplemented with 10 μM ZnSO4. Assays were read in 96-well microplate format at 490 nm using a Spectramax reader (Molecular Devices) at 30-37° C.
E. coli strain BW25113 was modified by deletion of the bamB and tolC genes so as to increase permeability to and reduce efflux of small molecules. This strain was then further modified by the single-copy chromosomal insertion of the blaNDM-1 gene under control of the pLac promoter. Microbial natural product extracts were screened against this strain in the presence of sublethal ¼ MIC meropenem. AM-A was purified from a hit extract and its structure elucidated by NMR, mass spectrometry and polarimetry. IC50 values for AM-A were determined using nitrocefin (for MBLs and Ser BLs) and furanacryloyl-L-phenylalanylglycylglycine (for ACE)^21 as reporter substrates against the following purified enzymes: MBLs IMP-7, VIM-2, and NDM-1; SBLs CTX-M-15, KPC-2, OXA-48, and TEM-1; as well as ACE from rabbit lung. […] FIC values were determined using standard methods^27. […]

Sequence of NDM-1 (C7C422 27-270 limits assumed): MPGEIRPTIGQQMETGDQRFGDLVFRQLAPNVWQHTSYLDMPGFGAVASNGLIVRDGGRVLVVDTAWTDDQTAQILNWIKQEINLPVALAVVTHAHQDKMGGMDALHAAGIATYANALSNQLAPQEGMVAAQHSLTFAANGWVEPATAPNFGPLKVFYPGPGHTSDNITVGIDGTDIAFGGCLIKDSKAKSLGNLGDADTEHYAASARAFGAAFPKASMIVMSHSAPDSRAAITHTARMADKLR
T2 sequence (P12822 34-1310): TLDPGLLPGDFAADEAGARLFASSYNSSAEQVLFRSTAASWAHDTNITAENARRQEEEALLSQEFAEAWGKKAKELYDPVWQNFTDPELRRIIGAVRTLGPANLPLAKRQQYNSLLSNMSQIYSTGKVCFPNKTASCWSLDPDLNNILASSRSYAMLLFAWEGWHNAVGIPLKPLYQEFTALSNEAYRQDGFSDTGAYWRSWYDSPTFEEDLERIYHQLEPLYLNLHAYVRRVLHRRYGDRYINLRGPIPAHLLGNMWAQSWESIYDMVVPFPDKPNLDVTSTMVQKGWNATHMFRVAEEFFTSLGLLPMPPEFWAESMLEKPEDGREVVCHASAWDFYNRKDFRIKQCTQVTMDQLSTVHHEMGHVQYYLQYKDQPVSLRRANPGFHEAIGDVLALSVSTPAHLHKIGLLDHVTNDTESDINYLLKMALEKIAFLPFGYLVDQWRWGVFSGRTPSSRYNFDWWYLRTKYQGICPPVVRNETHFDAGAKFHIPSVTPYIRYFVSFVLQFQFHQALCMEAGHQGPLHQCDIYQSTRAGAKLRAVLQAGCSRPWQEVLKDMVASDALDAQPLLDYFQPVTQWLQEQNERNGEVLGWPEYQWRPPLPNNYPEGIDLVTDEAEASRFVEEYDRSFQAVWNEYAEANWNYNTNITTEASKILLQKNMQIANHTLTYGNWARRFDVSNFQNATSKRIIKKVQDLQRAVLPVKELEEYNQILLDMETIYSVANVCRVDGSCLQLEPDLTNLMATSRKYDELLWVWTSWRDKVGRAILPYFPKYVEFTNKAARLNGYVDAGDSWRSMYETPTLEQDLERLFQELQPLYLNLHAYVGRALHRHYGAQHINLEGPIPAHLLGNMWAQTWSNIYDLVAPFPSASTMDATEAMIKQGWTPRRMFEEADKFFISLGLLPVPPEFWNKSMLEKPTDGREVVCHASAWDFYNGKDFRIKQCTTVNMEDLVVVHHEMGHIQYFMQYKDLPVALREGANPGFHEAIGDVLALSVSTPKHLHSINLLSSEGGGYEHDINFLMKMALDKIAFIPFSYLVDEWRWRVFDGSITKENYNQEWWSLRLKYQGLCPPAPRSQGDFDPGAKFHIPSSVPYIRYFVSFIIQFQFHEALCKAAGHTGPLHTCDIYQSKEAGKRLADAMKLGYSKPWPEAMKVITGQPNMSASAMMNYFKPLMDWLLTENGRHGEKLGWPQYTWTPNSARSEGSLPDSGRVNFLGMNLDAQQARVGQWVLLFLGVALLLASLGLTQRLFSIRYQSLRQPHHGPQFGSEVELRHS

N[C@H](CN[C@H](CN[C@@H](CC(=O)O)C(=O)O)C(=O)O)C(=O)O [AM-A, aspergillomarasmine A]
LD50 [1]: 250 mg/kg | inactivation of VIM-2 (VIM-2 [2]): complete inactivation | Ki (VIM-2 [3]): 7 nM | k+2 (inactivation rate constant) (VIM-2 [3]; time-dependent inactivation): 0.0065 s⁻¹ | loss of Zn from NDM-1 (NDM-1): ~1.8 Zn equivalents | reduction of activity of rabbit lung ACE (ACE from rabbit lung): ~35%

Source: patent US10016383B2, “Inhibitors of metallo-β-lactamase-enzymes” (McMaster University, priority 2013, dated 2018)
